Assays:
[1] = target: T1, Angiotensin-converting enzyme (Rattus norvegicus, UniProt P47820); experiment: Inhibition of Wistar rat plasma ACE
T1 sequence (P47820 whole entry): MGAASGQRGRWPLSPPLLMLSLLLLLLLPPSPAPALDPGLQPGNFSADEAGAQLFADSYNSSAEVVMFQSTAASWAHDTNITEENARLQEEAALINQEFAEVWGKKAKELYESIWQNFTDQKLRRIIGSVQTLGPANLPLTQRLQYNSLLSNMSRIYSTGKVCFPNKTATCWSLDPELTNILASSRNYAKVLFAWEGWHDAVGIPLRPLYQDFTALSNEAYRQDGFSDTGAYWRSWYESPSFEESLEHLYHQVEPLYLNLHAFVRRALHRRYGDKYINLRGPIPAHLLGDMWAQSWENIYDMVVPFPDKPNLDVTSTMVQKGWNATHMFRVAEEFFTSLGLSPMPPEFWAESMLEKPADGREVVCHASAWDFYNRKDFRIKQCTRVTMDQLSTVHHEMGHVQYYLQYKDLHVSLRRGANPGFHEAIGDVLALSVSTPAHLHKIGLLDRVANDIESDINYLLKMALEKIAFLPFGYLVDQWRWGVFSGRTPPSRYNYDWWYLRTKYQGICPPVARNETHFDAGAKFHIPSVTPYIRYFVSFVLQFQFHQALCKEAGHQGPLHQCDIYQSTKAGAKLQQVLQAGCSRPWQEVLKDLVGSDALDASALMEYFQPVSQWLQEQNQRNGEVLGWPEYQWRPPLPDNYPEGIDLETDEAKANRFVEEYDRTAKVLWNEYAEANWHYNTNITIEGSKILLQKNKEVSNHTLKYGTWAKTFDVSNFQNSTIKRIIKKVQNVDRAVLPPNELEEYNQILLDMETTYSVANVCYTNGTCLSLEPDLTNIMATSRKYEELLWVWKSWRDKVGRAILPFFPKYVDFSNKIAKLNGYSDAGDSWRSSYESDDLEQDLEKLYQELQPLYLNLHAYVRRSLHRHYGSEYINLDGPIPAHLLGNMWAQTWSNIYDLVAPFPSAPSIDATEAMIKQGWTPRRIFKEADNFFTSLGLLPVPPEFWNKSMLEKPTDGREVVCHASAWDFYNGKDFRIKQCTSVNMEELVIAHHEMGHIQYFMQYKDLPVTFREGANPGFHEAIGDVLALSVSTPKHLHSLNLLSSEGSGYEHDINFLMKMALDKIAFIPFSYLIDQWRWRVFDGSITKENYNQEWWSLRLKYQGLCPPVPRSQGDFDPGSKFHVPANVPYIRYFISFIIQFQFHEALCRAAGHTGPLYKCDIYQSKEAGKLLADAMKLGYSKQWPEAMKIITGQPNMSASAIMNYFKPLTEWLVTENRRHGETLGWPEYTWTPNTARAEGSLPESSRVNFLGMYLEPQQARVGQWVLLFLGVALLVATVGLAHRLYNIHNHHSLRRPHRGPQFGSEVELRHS

Dipeptidyl peptidase 4 [2] = target: Dipeptidyl peptidase 4 (Mus musculus, UniProt P28843); experiment: Inhibition of ob/ob mouse plasma DPP4
[3] = Cmax in Wistar rat plasma at 30 mg/kg, po; assay type: ADME, organism-based; design: dose 30 mg/kg, route oral
Dipeptidyl peptidase 9 = Dipeptidyl peptidase 9 (Homo sapiens, UniProt Q86TI2); experiment: Inhibition of DPP9 (unknown origin)
Liver [4] = experiment: Stability in mouse liver microsomes; assay type: ADME, microsome
[5] = Plasma protein binding in rat; assay type: ADME, cell-free; settings: read-out: PPB (converted)
Dipeptidyl peptidase 4 [6] = target: Dipeptidyl peptidase 4 (Rattus norvegicus, UniProt P14740); experiment: Inhibition of Wistar rat plasma DPP4
[7] = Plasma protein binding in human; assay type: ADME, cell-free; settings: read-out: PPB (converted)
Liver [8] = experiment: Stability in dog liver microsomes; assay type: ADME, Canis lupus familiaris, microsome
Cytochrome P450 2C19 = Cytochrome P450 2C19 (Homo sapiens, UniProt P33261); experiment: Inhibition of CYP2C19 (unknown origin) up to 10 uM; assay type: ADME
Prolyl endopeptidase = target: T2, Prolyl endopeptidase (Homo sapiens, UniProt P48147); experiment: Inhibition of PPCE (unknown origin)
T2 sequence (P48147 whole entry): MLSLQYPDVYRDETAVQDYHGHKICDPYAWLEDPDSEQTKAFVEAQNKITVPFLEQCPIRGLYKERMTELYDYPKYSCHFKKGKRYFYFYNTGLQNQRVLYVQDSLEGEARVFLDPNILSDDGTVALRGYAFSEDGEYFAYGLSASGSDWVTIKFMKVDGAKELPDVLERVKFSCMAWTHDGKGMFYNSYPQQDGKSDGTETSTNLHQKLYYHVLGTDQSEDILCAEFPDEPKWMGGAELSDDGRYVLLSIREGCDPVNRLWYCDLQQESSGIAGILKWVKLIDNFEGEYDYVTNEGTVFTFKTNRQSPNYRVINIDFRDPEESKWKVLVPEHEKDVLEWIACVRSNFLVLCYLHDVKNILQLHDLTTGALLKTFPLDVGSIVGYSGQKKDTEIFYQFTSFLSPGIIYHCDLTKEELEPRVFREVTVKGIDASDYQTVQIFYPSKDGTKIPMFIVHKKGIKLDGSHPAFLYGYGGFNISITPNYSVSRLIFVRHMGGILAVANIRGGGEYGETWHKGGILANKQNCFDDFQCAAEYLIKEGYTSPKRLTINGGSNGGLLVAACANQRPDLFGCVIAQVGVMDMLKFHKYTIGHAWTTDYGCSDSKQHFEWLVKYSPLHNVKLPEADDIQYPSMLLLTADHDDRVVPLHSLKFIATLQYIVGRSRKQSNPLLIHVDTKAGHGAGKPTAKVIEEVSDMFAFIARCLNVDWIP

Sequence of Dipeptidyl peptidase 9 (Q86TI2 whole entry): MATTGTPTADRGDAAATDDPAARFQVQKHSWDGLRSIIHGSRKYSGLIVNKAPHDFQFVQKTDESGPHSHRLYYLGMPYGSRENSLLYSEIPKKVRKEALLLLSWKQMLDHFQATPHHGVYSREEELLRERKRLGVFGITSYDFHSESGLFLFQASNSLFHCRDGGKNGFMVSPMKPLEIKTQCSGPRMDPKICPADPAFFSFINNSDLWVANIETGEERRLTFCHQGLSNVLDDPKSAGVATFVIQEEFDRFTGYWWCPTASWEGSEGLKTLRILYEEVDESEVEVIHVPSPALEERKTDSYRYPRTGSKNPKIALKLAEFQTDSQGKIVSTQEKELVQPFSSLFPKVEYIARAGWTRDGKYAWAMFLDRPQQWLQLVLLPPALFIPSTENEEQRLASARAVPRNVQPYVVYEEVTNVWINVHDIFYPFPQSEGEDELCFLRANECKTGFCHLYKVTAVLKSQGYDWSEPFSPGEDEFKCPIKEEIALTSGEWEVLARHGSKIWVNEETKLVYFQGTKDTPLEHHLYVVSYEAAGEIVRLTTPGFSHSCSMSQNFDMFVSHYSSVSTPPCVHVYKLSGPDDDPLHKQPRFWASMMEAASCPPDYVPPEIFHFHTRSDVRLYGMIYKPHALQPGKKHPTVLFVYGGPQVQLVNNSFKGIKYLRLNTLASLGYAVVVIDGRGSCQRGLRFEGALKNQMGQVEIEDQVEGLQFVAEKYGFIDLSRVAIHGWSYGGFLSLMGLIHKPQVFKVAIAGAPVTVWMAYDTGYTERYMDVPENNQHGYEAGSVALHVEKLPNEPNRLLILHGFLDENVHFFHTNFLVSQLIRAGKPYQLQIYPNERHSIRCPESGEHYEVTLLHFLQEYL
Sequence of Dipeptidyl peptidase 4 (Rattus norvegicus, UniProt P14740) (P14740 whole entry): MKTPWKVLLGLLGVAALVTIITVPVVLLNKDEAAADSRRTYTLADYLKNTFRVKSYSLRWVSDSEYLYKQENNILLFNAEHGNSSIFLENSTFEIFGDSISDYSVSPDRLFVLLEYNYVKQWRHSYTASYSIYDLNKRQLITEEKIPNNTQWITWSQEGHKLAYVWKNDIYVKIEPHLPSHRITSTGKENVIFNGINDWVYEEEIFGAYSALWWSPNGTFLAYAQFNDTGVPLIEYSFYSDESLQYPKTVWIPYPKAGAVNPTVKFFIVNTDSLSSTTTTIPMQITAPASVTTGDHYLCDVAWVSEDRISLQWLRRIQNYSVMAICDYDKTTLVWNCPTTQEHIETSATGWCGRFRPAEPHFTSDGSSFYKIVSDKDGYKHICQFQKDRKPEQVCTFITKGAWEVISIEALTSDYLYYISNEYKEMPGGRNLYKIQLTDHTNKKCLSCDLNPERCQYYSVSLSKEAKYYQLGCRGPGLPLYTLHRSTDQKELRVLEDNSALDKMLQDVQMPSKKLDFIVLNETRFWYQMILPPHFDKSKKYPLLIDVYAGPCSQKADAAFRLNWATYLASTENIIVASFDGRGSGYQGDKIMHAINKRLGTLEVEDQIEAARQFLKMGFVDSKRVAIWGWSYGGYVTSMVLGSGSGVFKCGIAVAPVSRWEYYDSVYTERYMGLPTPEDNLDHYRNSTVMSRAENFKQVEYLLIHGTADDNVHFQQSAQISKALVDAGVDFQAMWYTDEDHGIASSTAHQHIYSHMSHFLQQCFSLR
Sequence of Cytochrome P450 2C19 (P33261 whole entry): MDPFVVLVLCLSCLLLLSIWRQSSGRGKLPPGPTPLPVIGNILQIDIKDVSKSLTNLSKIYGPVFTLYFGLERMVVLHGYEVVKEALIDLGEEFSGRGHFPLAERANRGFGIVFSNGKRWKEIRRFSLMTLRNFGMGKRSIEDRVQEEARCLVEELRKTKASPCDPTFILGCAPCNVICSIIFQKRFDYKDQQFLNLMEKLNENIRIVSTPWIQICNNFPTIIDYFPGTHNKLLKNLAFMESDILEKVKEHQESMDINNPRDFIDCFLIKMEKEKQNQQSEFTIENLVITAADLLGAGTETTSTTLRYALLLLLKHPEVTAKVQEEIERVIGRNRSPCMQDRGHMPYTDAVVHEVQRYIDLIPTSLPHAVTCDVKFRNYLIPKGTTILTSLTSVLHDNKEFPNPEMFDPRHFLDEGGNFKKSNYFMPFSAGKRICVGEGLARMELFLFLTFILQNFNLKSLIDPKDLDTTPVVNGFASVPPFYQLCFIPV
Sequence of Dipeptidyl peptidase 4 (Mus musculus, UniProt P28843) (P28843 whole entry): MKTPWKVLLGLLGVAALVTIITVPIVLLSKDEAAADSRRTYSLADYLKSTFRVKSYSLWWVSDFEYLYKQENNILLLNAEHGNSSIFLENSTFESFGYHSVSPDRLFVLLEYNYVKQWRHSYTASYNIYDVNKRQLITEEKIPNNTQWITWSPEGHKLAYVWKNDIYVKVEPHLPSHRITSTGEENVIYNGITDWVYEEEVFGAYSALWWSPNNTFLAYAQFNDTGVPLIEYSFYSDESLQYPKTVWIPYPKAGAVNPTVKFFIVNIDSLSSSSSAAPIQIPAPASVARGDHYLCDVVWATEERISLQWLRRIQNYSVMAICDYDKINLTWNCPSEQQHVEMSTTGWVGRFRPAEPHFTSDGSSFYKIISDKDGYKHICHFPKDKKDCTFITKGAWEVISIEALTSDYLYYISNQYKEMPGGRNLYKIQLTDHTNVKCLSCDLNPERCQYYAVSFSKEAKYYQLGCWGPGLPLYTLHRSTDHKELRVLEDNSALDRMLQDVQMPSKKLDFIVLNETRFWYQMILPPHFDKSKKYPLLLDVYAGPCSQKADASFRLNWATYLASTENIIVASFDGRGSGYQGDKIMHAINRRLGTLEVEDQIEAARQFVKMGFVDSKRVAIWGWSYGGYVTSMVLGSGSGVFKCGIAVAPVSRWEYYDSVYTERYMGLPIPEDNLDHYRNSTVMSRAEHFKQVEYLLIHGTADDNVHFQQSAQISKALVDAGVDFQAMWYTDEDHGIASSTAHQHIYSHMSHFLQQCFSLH

IC50 [1] [nM]	IC50 (Dipeptidyl peptidase 4 [2]) [nM]	Cmax [3] [ng/mL]	IC50 (Dipeptidyl peptidase 9) [nM]	Stability (Liver [4])	fraction unbound [5]	IC50 (Dipeptidyl peptidase 4 [6]) [nM]	fraction unbound [7]	Stability (Liver [8])	inhibition (INH) (Cytochrome P450 2C19)	IC50 (Prolyl endopeptidase) [nM]	SMILES
334	217	260	44000	Stable	0.58	155	0.707	Stable	Not Active		C[C@H](N[C@@H](CCc1ccccc1)C(=O)O)C(=O)N1C[C@@H](NC(=O)C[C@H](N)Cc2cc(F)c(F)cc2F)C[C@H]1C(=O)O
2800	7170	1330	> 100000	Stable	0.583	4170	0.327	Stable	Not Active	> 100000	CCCC[C@H](N[C@@H](CCc1ccccc1)C(=O)O)C(=O)N1C[C@@H](NC(=O)C[C@H](N)Cc2cc(F)c(F)cc2F)C[C@H]1C(=O)O
24	488	550	> 100000	Stable	0.403	319	0.636	Stable	Not Active	> 100000	CC[C@H](N[C@@H](CCc1ccccc1)C(=O)O)C(=O)N1C[C@@H](NC(=O)C[C@H](N)Cc2cc(F)c(F)cc2F)C[C@H]1C(=O)O
893	2470	2500	> 100000	Stable	0.564	1230	0.597	Stable	Not Active	> 100000	CCC[C@H](N[C@@H](CCc1ccccc1)C(=O)O)C(=O)N1C[C@@H](NC(=O)C[C@H](N)Cc2cc(F)c(F)cc2F)C[C@H]1C(=O)O
